Measurements taken from patent US20200017495A1, “NOVEL HETEROCYCLIC COMPOUNDS AND THEIR USE IN PREVENTING OR TREATING BACTERIAL INFECTIONS” (priority 2017, published 2020).

Columns and labels:
Experiment in all cases: MIC of compounds alone and combined with antibacterials, broth microdilution (CLSI)
Type in all cases: cell-based
[1] = tested on: Citrobacter freundii (CFR) isolates
How it was run: (§1)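 First, log-phase suspensions are brought to 5.10^5 CFU/mL final in ca-MHB; plates then incubate 16-20 h at 35° C in air. Growth is judged visually, giving the compound MIC alone and the antibacterial MIC at each compound concentration.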

[2] = tested on: Citrobacter koseri (CKR) isolates
How it was run: as §1

[3] = tested on: Enterobacter aerogenes (EAE) isolates
How it was run: as §1

C=CC1=C(C(=O)O)N2C(=O)[C@@H](NC(=O)/C(=N\OCC(=O)O)c3csc(N)n3)[C@H]2SC1 [FIX, Cefixime]
<0.25 µg/mL: MIC ATB in combination ([1]; CFR UFR10, AF2 @ 8 μg/mL) | MIC ATB in combination ([1]; CFR UFR248, AF2 @ 8 μg/mL) | MIC ATB in combination ([1]; CFR UFR250, AF2 @ 8 μg/mL) | MIC ATB in combination ([1]; CFR UFR250, AF3 @ 8 μg/mL) | MIC ATB in combination ([1]; strain CFR UFR147, with AF2 @ 8 μg/mL) | MIC ATB in combination ([1]; strain CFR UFR147, with AF3 @ 8 μg/mL) | MIC ATB in combination ([1]; strain CFR UFR148, with AF2 @ 8 μg/mL) | MIC ATB in combination ([1]; strain CFR UFR148, with AF3 @ 8 μg/mL) | MIC ATB in combination ([1]; strain CFR UFR251, with AF2 @ 8 μg/mL) | MIC ATB in combination ([1]; strain CFR UFR251, with AF3 @ 8 μg/mL) | MIC ATB in combination ([2]; CKO UFR149, AF2 @ 8 μg/mL) | MIC ATB in combination ([2]; CKO UFR149, AF3 @ 8 μg/mL) | MIC ATB in combination ([3]; EAE 49469, AF2 @ 8 μg/mL) | MIC ATB in combination ([3]; EAE 49469, AF3 @ 8 μg/mL) | MIC ATB in combination ([3]; EAE 200261, AF3 @ 8 μg/mL) | MIC ATB in combination ([3]; EAE UFR201, AF2 @ 8 μg/mL) | MIC ATB in combination ([3]; EAE UFR201, AF3 @ 8 μg/mL) | MIC ATB in combination ([3]; EAE UFR207, AF2 @ 8 μg/mL) | MIC ATB in combination ([3]; EAE UFR207, AF3 @ 8 μg/mL)
1 µg/mL: MIC ATB in combination ([1]; CFR UFR146, AF3 @ 8 μg/mL) | MIC ATB in combination ([1]; strain CFR UFR253, with AF2 @ 8 μg/mL) | MIC ATB in combination ([2]; CKO ROU, AF3 @ 8 μg/mL) | MIC ATB in combination ([2]; CKO UFR149, CLA @ 4 μg/mL) | MIC ([2]; strain CKO ROU, genotype TEM-1, SHV-12, CTX-M-15, OXA-1, OXA-48) | MIC ATB in combination ([3]; EAE UFR207, CLA @ 4 μg/mL)
32 µg/mL: MIC ATB in combination ([1]; CFR UFR10, CLA @ 4 μg/mL) | MIC ATB in combination ([1]; CFR UFR11, AF3 @ 8 μg/mL) | MIC ATB in combination ([1]; CFR UFR11, CLA @ 4 μg/mL) | MIC ([1]; strain CFR UFR11, genotype TEM-1, OXA-1, OXA-48) | MIC ([1]; strain CFR UFR254, genotype VEB-1b, OXA-48, qnrA)
<=0.25 μg/mL: MIC ATB in combination ([1]; CFR UFR10, AF3 @ 8 μg/mL) | MIC ATB in combination ([1]; CFR UFR37, AF2 @ 8 μg/mL) | MIC ATB in combination ([1]; CFR UFR37, AF3 @ 8 μg/mL) | MIC ATB in combination ([1]; CFR UFR248, AF3 @ 8 μg/mL) | MIC ATB in combination ([1]; CFR UFR249, AF2 @ 8 μg/mL) | MIC ATB in combination ([1]; CFR UFR249, AF3 @ 8 μg/mL) | MIC ATB in combination ([1]; strain CFR UFR254, with AF2 @ 8 μg/mL) | MIC ATB in combination ([3]; EAE UFR199, AF3 @ 8 μg/mL) | MIC ATB in combination ([3]; EAE UFR201, CLA @ 4 μg/mL) | MIC ATB in combination ([3]; EAE UFR213, AF3 @ 8 μg/mL)
64 µg/mL: MIC ATB in combination ([1]; CFR UFR146, CLA @ 4 μg/mL) | MIC ([1]; strain CFR UFR146, genotype TEM-1, KPC-2)
4 µg/mL: MIC ATB in combination ([1]; CFR UFR248, CLA @ 4 μg/mL) | MIC ATB in combination ([3]; EAE UFR202, AF3 @ 8 μg/mL)
2 µg/mL: MIC ATB in combination ([1]; CFR UFR146, AF2 @ 8 μg/mL) | MIC ATB in combination ([1]; CFR UFR249, CLA @ 4 μg/mL) | MIC ATB in combination ([1]; CFR UFR250, CLA @ 4 μg/mL) | MIC ATB in combination ([2]; CKO ROU, CLA @ 4 μg/mL) | MIC ATB in combination ([2]; CKO UFR150, AF2 @ 8 μg/mL) | MIC ATB in combination ([2]; CKO UFR150, AF3 @ 8 μg/mL) | MIC ATB in combination ([2]; CKO UFR150, CLA @ 4 μg/mL) | MIC ([2]; strain CKO UFR150, genotype TEM-1, OXA-48)
>128 µg/mL: MIC ATB in combination ([1]; CFR UFR37, CLA @ 4 μg/mL) | MIC ATB in combination ([1]; CFR UFR83, AF2 @ 8 μg/mL) | MIC ATB in combination ([1]; CFR UFR83, AF3 @ 8 μg/mL) | MIC ATB in combination ([1]; CFR UFR83, CLA @ 4 μg/mL) | MIC ([1]; strain CFR UFR10, genotype OXA-48) | MIC ([1]; strain CFR UFR37, genotype TEM-1, CTX-M-15, NDM-1) | MIC ([1]; strain CFR UFR83, genotype TEM-3, AmpC) | MIC ([1]; strain CFR UFR147, genotype TEM-1, CTX-M-15, OXA-1, OXA-181, OXA-10, OXA-9, NDM-1, ArmA, dfrA12, aadA2, antibiotic alone) | MIC ATB in combination ([1]; strain CFR UFR147, with CLA @ 4 μg/mL) | MIC ([1]; strain CFR UFR148, genotype TEM-1, TEM-2, CTX-M-15, NDM-1, antibiotic alone) | MIC ATB in combination ([1]; strain CFR UFR148, with CLA @ 4 μg/mL) | MIC ([1]; strain CFR UFR248, genotype CTX-M-15) | MIC ([1]; strain CFR UFR249, genotype TEM-1, CTX-M-15) | MIC ([1]; strain CFR UFR250, compound alone) | MIC ([1]; strain CFR UFR250, genotype TEM-1, SHV-28, CTX-M-15) | MIC ([1]; strain CFR UFR251, genotype SHV-11, VIM-1, antibiotic alone) | MIC ATB in combination ([1]; strain CFR UFR251, with CLA @ 4 μg/mL) | MIC ([1]; strain CFR UFR252, genotype VIM-2, antibiotic alone) | MIC ATB in combination ([1]; strain CFR UFR252, with AF2 @ 8 μg/mL) | MIC ATB in combination ([1]; strain CFR UFR252, with AF3 @ 8 μg/mL) | MIC ATB in combination ([1]; strain CFR UFR252, with CLA @ 4 μg/mL) | MIC ([1]; strain CFR UFR253, genotype TEM-1, SHV-12, OXA-48) | MIC ATB in combination ([1]; strain CFR UFR253, with CLA @ 4 μg/mL) | MIC ATB in combination ([3]; EAE 49469, CLA @ 4 μg/mL) | MIC ATB in combination ([3]; EAE 200261, CLA @ 4 μg/mL) | MIC ([3]; strain EAE 49469, genotype AmpC) | MIC ([3]; strain EAE 200261, genotype TEM-x, AmpC) | MIC ([3]; strain EAE UFR201, genotype TEM-1, SHV-12, CTX-M-15)
8 µg/mL: MIC ATB in combination ([1]; strain CFR UFR253, with AF3 @ 8 μg/mL) | MIC ATB in combination ([3]; EAE 200261, AF2 @ 8 μg/mL)
0.5 µg/mL: MIC ATB in combination ([1]; strain CFR UFR254, with AF3 @ 8 μg/mL) | MIC ATB in combination ([2]; CKO ROU, AF2 @ 8 μg/mL) | MIC ([2]; strain CKO UFR149, genotype OXA-48) | MIC ATB in combination ([3]; EAE UFR199, AF2 @ 8 μg/mL)
>1024 µg/mL: MIC ([3]; strain EAE UFR199, compound alone) | MIC ([3]; strain EAE UFR199, genotype TEM-1b, SHV-12, KPC-2, OXA-9)
16 µg/mL: MIC ATB in combination ([1]; CFR UFR11, AF2 @ 8 μg/mL) | MIC ATB in combination ([1]; strain CFR UFR254, with CLA @ 4 μg/mL) | MIC ATB in combination ([3]; EAE UFR199, CLA @ 4 μg/mL) | MIC ATB in combination ([3]; EAE UFR202, AF2 @ 8 μg/mL) | MIC ATB in combination ([3]; EAE UFR213, AF2 @ 8 μg/mL)
